These results are taken from patent US10202381B2, “Histone demethylase inhibitors” (CELGENE QUANTICEL RESEARCH, INC., priority 2014, dated 2019).

Read-outs that look alike come from different tables or passages of the source.

One assay deals with JMJD2C (Homo sapiens (Human), UniProt Q9H3R0). The assay is described as follows: In vitro enzyme inhibition assay (JMJD2C TR-FRET). Type of assay: biochemical. As to conditions: 0.3 nM JMJD2C, 300 nM H3K9me3-biotin peptide, 2 μM alpha-ketoglutaric acid. The method, then:
This assay determines the ability of a test compound to inhibit JMJD2C demethylase activity. Baculovirus expressed JMJD2C (GenBank Accession #BC143571, AA 2-372) was purchased from BPS Bioscience (Cat#50105).
The ability of test compounds to inhibit the activity of JMJD2C was determined in 384-well plate-format under the following reaction conditions: 0.3 nM JMJD2C, 300 nM H3K9me3-biotin labeled peptide (Anaspec cat #64360), 2 μM alpha-ketoglutaric acid in assay buffer of 50 mM HEPES, pH 7.3, 0.005% Brij35, 0.5 mM TCEP, 0.2 mg/ml BSA, 50 μM sodium L-ascorbate, and 2 μM ammonium iron(II) sulfate. Reaction product was determined quantitatively by TR-FRET after the addition of detection reagent Phycolink Streptavidin-allophycocyanin (Prozyme) and Europium-anti-di-methylated histone H3 lysine 9 (H3K9me2) antibody (PerkinElmer) in the presence of 5 mM EDTA in LANCE detection buffer (PerkinElmer) at a final concentration of 50 nM and 1 nM, respectively.
The assay reaction was initiated by the following: 2 μl of the mixture of 900 nM H3K9me3-biotin labeled peptide and 6 μM alpha-ketoglutaric acid with 2 μl of 11-point serial diluted inhibitor in 3% DMSO were added to each well of the plate, followed by the addition of 2 μl of 0.9 nM JMJD2C to initiate the reaction. The reaction mixture was incubated at room temperature for 30 min, and terminated by the addition of 6 μl of 5 mM EDTA in LANCE detection buffer containing 100 nM Phycolink Streptavidin-allophycocyanin and 2 nM Europium-anti-H3K9me2 antibody. Plates were read by EnVisionMultilabel Reader in TR-FRET mode (excitation at 320 nm, emission at 615 nm and 665 nm) after 1 hr incubation at room temperature. A ratio was calculated (665/615) for each well and fitted to determine inhibition constant (IC50).
The ability of the compounds disclosed herein to inhibit demethylase activity was quantified and the respective IC50 value was determined. Table 3 provides the IC50 values of various compounds disclosed herein.

Assay [1] relates to KYSE-150 esophageal carcinoma cell line. Kind of assay: In vitro cell-based assay: BrdU cell proliferation ELISA. Set-up: species or system human. Particulars: KYSE-150 cells, BrdU incorporation after 168 hr of compound incubation, read-out: Cellular IC50. The method, then:
Cell lines tested include the JMJD2C gene amplified cell line KYSE-150. This is a quantitative ELISA assay measuring DNA incorporation of BrdU during S-phase as a direct readout of cellular proliferation.
Assay Principle: This is a colorimetric immunoassay for the quantification of cell proliferation. Cells treated for 168 hr with test compounds are assayed for their ability to go through S-phase as a measure of their proliferative potential.
Assay Method: The human KYSE-150 (SMAD4 mut, TP53 mut) esophageal carcinoma cell line was seeded at 2,000 cells/well on a 96-well tissue culture treated plate. After an overnight incubation, cells were treated with compound in an 11-point dilution series with final concentrations ranging from 100 μM to 2 nM. Cells were then incubated in the presence of compound for 168 hr. After compound incubation the cells were assayed using a BrdU Cell Proliferation ELISA (Roche). The cells were first incubated with BrdU labeling reagent for 2 hr. After 2 hr, the BrdU incorporated cells were fixed and denatured, probed with an anti-BrdU-Peroxidase antibody for 1.5 hr and washed. Finally, a tetramethylbenzidine peroxidase substrate was added to each well for 15 min. followed by a H2SO4 stop solution. The plate was read at 450 nm, and the raw optical density data was transferred into XLFit (IDBS) for IC50 calculation using the formula: fit=(D+((Vmax*(x^n))/((x^n)+(Km^n)))).
Table 4 provides the cellular IC50 values of various compounds disclosed herein.
For orientation: An ELISA detects its analyte on a solid surface through an enzyme-linked reagent.

By IC50 is commonly meant the concentration at which inhibition is half-maximal.

Sequence of JMJD2C (Q9H3R0 2-372): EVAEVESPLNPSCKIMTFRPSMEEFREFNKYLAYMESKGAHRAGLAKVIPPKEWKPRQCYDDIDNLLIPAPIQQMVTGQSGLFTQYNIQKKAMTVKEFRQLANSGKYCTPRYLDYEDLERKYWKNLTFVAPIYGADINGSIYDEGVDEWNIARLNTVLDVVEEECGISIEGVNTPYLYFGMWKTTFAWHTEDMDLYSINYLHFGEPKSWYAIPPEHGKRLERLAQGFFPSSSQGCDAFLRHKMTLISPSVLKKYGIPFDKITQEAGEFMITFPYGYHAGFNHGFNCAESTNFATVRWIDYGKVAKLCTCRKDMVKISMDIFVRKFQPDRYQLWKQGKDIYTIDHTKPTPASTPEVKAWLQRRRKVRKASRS

As for “2-(4-{[4-(4-amino-piperidin-1-yl)-phenyl]-methyl-amino}-phenoxy)-pyrido[3,4-d]pyrimidin-4-ol [Example 23]”, the IC50 on JMJD2C lay within 100 to 1000 nM; in assay [1], 1000 to 10000 nM.
Consider `CN(c1ccc(Oc2nc(O)c3ccncc3n2)cc1)c1ccc2c(c1)OCC2(C)C` [Example 116], for which, on JMJD2C, the IC50 is 100 to 1000 nM.
With `CC(C)c1ccc(N(c2ccc(Oc3nc(O)c4ccncc4n3)cc2)C2CCOCC2)cc1` [Example 118, 2-(4-((4-isopropylphenyl)(tetrahydro-2H-pyran-4-yl)amino)phenoxy)pyrido[3,4-d]pyrimidin-4-ol], the IC50 in assay [1] (Homo sapiens) lay in the range of 1000 to 10000 nM.
Regarding `CC(C)c1ccc(N(c2ccc(Oc3nc(O)c4ccncc4n3)cc2)C2CCN(C)CC2)cc1` [Example 119, 2-(4-((4-isopropylphenyl)(1-methylpiperidin-4-yl)amino)phenoxy)pyrido[3,4-d]pyrimidin-4-ol], the results for the IC50 (on JMJD2C; in assay [1] (Homo sapiens)) were ≤ 100 nM and > 10000 nM, respectively.
In the case of `CCCN(c1ccc(Oc2nc(O)c3ccncc3n2)cc1)c1ccc(C(C)C)cc1` [Example 120, 2-(4-((4-isopropylphenyl)(propyl)amino)phenoxy)pyrido[3,4-d]pyrimidin-4-ol], the IC50 at JMJD2C is 100 to 1000 nM; in assay [1] (Homo sapiens), 1000 to 10000 nM.
With `CC(C)c1ccc(Nc2ccc(Oc3nc(O)c4ccncc4n3)cc2)cc1` [Example 121, 2-(4-((4-isopropylphenyl)amino)phenoxy)pyrido[3,4-d]pyrimidin-4-ol], the concentration for half-maximal inhibition (IC50) was ≤ 100 nM at JMJD2C and 1000 to 10000 nM in assay [1] (Homo sapiens).
Take `CC(C)c1ccc(N(c2ccc(Oc3nc(O)c4ccncc4n3)cc2)C(C)C)cc1` [Example 122]: the IC50 against JMJD2C fell in the range of 1000 to 10000 nM.
Compound `CC(C)CN(c1ccc(Oc2nc(O)c3ccncc3n2)cc1)c1ccc(C(C)C)cc1` [Example 123, 2-(4-(isobutyl(4-isopropylphenyl)amino)phenoxy)pyrido[3,4-d]pyrimidin-4-ol] showed an IC50 against JMJD2C of 1000 to 10000 nM.
In the case of `CC(C)c1ccc(N(c2ccc(Oc3nc(O)c4ccncc4n3)cc2)C2CCCN(C)C2)cc1` (stereo not shown) [Example 124, 2-(4-((4-isopropylphenyl)(1-methylpiperidin-3-yl)amino)phenoxy)pyrido[3,4-d]pyrimidin-4-ol], the IC50 on JMJD2C is ≤ 100 nM; in assay [1] (Homo sapiens), 1000 to 10000 nM.
Taken in the same sequence, the figures for `CC(C)c1ccc(N(c2ccc(Oc3nc(O)c4ccncc4n3)cc2)C2CCCC2)cc1` [Example 125, 2-(4-(cyclopentyl(4-isopropylphenyl)amino)phenoxy)pyrido[3,4-d]pyrimidin-4-ol] were 1000 to 10000 nM and ≤ 100 nM.
Regarding `CC(C)c1ccc(N(c2ccc(Oc3nc(O)c4ccncc4n3)cc2)C2CCNC2)cc1` (stereo not shown) [Example 126, 2-(4-((4-isopropylphenyl)(pyrrolidin-3-yl)amino)phenoxy)pyrido[3,4-d]pyrimidin-4-ol], the IC50 (against JMJD2C; in assay [1] (Homo sapiens)) was ≤ 100 nM in each case.
Regarding `CC(C)c1ccc(N(c2ccc(Oc3nc(O)c4ccncc4n3)cc2)C2CCN(C)C2)cc1` (stereo not shown) [Example 127, 2-(4-((4-isopropylphenyl)(1-methylpyrrolidin-3-yl)amino)phenoxy)pyrido[3,4-d]pyrimidin-4-ol], the IC50 against JMJD2C was ≤ 100 nM; in assay [1] (Homo sapiens) it was > 10000 nM.
In the case of `Cc1ccc2c(c1)CCN2c1ccc(Oc2nc(O)c3ccncc3n2)cc1` [Example 128], the IC50 (at JMJD2C; in assay [1] (Homo sapiens)) was ≤ 100 nM each time.
As for `Cc1ccc2c(ccn2-c2ccc(Oc3nc(O)c4ccncc4n3)cc2)c1` [Example 129, 2-(4-(5-methyl-1H-indol-1-yl)phenoxy)pyrido[3,4-d]pyrimidin-4-ol], the IC50 on JMJD2C is ≤ 100 nM; in assay [1] (Homo sapiens) it was 1000 to 10000 nM.
For `CC(C)c1ccc(N(c2ccc(Oc3nc(O)c4ccncc4n3)cc2)C2CCCNC2)cc1` (stereo not shown) [Example 130, 2-(4-((4-isopropylphenyl)(piperidin-3-yl)amino)phenoxy)pyrido[3,4-d]pyrimidin-4-ol], the IC50 on JMJD2C was ≤ 100 nM; in assay [1] (Homo sapiens), > 10000 nM.
With `Cc1cc(Oc2nc(O)c3ccncc3n2)ccc1N(C)c1ccc(C(C)C)cc1` [Example 131, 2-(4-((4-isopropylphenyl)(methyl)amino)-3-methylphenoxy)pyrido[3,4-d]pyrimidin-4-ol], the IC50 on JMJD2C was 100 to 1000 nM; in assay [1] (Homo sapiens) it was > 10000 nM.
On to `CC(C)N1CCN(c2cccc(N(C)c3ccc(Oc4nc(O)c5ccncc5n4)cc3)c2)CC1` [Example 132, 2-(4-((3-(4-isopropylpiperazin-1-yl)phenyl)(methyl)amino)phenoxy)pyrido[3,4-d]pyrimidin-4-ol], for which the IC50 in assay [1] (Homo sapiens) was in the range of 100 to 1000 nM.
Take `CN1CCN(c2cccc(N(C)c3ccc(Oc4nc(O)c5ccncc5n4)cc3C(F)(F)F)c2)CC1` [Example 133, 2-(4-(methyl(3-(4-methylpiperazin-1-yl)phenyl)amino)-3-(trifluoromethyl)phenoxy)pyrido[3,4-d]pyrimidin-4-ol]: the half-inhibitory concentration (IC50) against JMJD2C was ≤ 100 nM; in assay [1] (Homo sapiens) it was 1000 to 10000 nM.
On to `CN1CC=C(c2cccc(N(C)c3ccc(Oc4nc(O)c5ccncc5n4)cc3)c2)CC1` [Example 139, 2-(4-(methyl(3-(1-methyl-1,2,3,6-tetrahydropyridin-4-yl)phenyl)amino)phenoxy)pyrido[3,4-d]pyrimidin-4-ol], for which, on JMJD2C, the IC50 is ≤ 100 nM.
Consider `CN1CCN(c2cccc(N(CC3CC3)c3ccc(Oc4nc(O)c5ccncc5n4)cc3)c2)CC1` [Example 142, 2-(4-((cyclopropylmethyl)(3-(4-methylpiperazin-1-yl)phenyl)amino)phenoxy)pyrido[3,4-d]pyrimidin-4-ol], for which, at JMJD2C, the IC50 is ≤ 100 nM.
In the case of `CC(C)c1ccc(N(C)c2ccc(Oc3nc(O)c4ccncc4n3)cc2C(F)(F)F)cc1` [Example 143, 2-(4-((4-isopropylphenyl)(methyl)amino)-3-(trifluoromethyl)phenoxy)pyrido[3,4-d]pyrimidin-4-ol], at JMJD2C, the IC50 lay within 1000 to 10000 nM.
Turning to `CCc1ccc(N(C)c2ccc(Oc3nc(O)c4ccncc4n3)cc2C)cc1` [Example 144, 2-(4-((4-ethylphenyl)(methyl)amino)-3-methylphenoxy)pyrido[3,4-d]pyrimidin-4-ol], on JMJD2C, the IC50 is ≤ 100 nM.
On to `COc1ccc(N2CCN(C)CC2)cc1N(C)c1ccc(Oc2nc(O)c3ccncc3n2)cc1` [Example 145, 2-(4-((2-methoxy-5-(4-methylpiperazin-1-yl)phenyl)(methyl)amino)phenoxy)pyrido[3,4-d]pyrimidin-4-ol], for which the IC50 at JMJD2C was ≤ 100 nM.
For `CCOc1ccc(N2CCN(C)CC2)cc1N(C)c1ccc(Oc2nc(O)c3ccncc3n2)cc1` [Example 146, 2-(4-((2-ethoxy-5-(4-methylpiperazin-1-yl)phenyl)(methyl)amino)phenoxy)pyrido[3,4-d]pyrimidin-4-ol], the IC50 against JMJD2C was ≤ 100 nM.
Take `Cc1ccc(N2CCN(C)CC2)cc1N(C)c1ccc(Oc2nc(O)c3ccncc3n2)cc1` [Example 147, 2-(4-(methyl(2-methyl-5-(4-methylpiperazin-1-yl)phenyl)amino)phenoxy)pyrido[3,4-d]pyrimidin-4-ol]: the IC50 on JMJD2C was ≤ 100 nM.
The compound `Cc1cc(Oc2nc(O)c3ccncc3n2)ccc1N(C)c1ccc(C(C)(C)C)cc1` [Example 148, 2-(4-((4-(tert-butyl)phenyl)(methyl)amino)-3-methylphenoxy)pyrido[3,4-d]pyrimidin-4-ol] registered an IC50 on JMJD2C of 100 to 1000 nM.
The same measure, in the same setting: in the case of `CCCc1ccc(N(C)c2ccc(Oc3nc(O)c4ccncc4n3)cc2C)cc1` [Example 149, 2-(3-methyl-4-(methyl(4-propylphenyl)amino)phenoxy)pyrido[3,4-d]pyrimidin-4-ol] it was 100 to 1000 nM.
